Reference: patent US20260335282A1, “NOVEL 3-ARYLIDENE-2-INDOLINONE DERIVATIVES FOR THERAPEUTIC USE” (ISTANBUL UNIVERSITESI REKTORLUGU, priority 2022, published 2026)
Read-outs that look alike come from different tables or passages of the source.

Legend:
Assay type in all cases: cell-based, human
HCT-116 cells = test: MTT cytotoxicity, colon cancer cells HCT-116; details: no * mark (incubation time not specified)
Text: (§1) The cytotoxicity, general tyrosine kinase inhibitory effects and cell death (apoptosis/necrosis) assays of 1-benzyl-3-(1H-indol-3-ylmethylidene)-1,3-dihydro-2H-indol-2-one derivatives (Formula 5) of the present invention are studied by the following methods. […] HUVEC (human umbilical vein endothelial cell), MCF-10F (human breast epithelial cell) and Beas2b (human lung bronchial epithelial cell) cell lines have been used as healthy control cells in MTT experiments.
(§2) Beas2b (human lung bronchiole epithelial cell) and HEK293 (renal tubule epithelium) cells used as normal cell lines were cultured in RPMI medium, and HUVEC (human umbilical cord endothelial cells) and MCF-10F (human breast epithelial cell) cells are cultured in DMEM medium containing 100 µg/ml penicillin/streptomycin. The cells, which covered 70% of the culture flask, are washed with phosphate buffer and then removed from the surface of the flask by application of trypsin-ethylenediamine tetraacetic acid (Trypsin-EDTA; 0.25%) solution, passaged, counted and seeded on appropriate plates before each experiment. Cells are treated with a total of 45 2-indolinone compounds (5) at concentrations of 0.1, 1, 5 and 10 μM. Stock compounds are prepared in 1 ml dimethylsulfoxide (DMSO) and 4 different dilutions were prepared with medium and performed to the cells. Control group cells are treated with DMSO at a similar concentration to the experimental groups.
(§3) MTT (3-(4,5-dimethylthiazol-2-yl)-2,5-diphenyl-2H-tetrazolium bromide) colorimetric assay provides quantitation of viable cells with ongoing mitochondrial activity in culture medium. According to the standard procedure in cell culture conditions, cells are maintained in RPMI-1640 and DMEM culture media containing 10% FBS and 1% penicillin/streptomycin. The trypan blue test is used for cell counts.
(§4) The effects of 45 2-indolinone compounds (5) on cell viability in all cancer cell lines are investigated by MTT assay. Cells are seeded in a 96-well flat bottom plate with 5000 cells in each well and 2-indolinone compounds (5) at concentrations of 0.1, 1, 5 and 10 μM are performed to the cells the next day. After 48 and/or 72 hours following treatment with 2-indolinone compounds, 50 μl of the supernatant is slowly discarded (as it was acid medium) and MTT at a concentration of 5 mg/ml is added to each well in a volume of 10 μl. After incubation for 4 hours, the formazan crystals formed in the wells are dissolved by adding 100 μl DMSO and the optical density is read at 570 nm test wavelength and 630 nm reference wavelength. Cell viability is expressed as % cell viability by comparing the absorbance of control and test wells. IC50 value is calculated from the dose-response curves prepared for each compound. In addition, the possible DMSO effect is eliminated by preparing negative control wells compatible with the amount of DMSO contained in the compounds. To understand the reaction of the compounds with MTT, cell-free (MTT+compounds) negative controls are prepared at the concentrations used (Mosmann, 1983). […] The absorbance values obtained are compared to the control and statistically evaluated by unpaired t-test using “Graphpad Prism 5.04” software. “P<0.05” is accepted as significant. When evaluating cytotoxic effects, the present inventors aim for the inventive compounds to be effective in cancer cells and ineffective in healthy cells. The inventive compounds have also been compared with sunitinib, one of the reference chemotherapy drugs currently used in treatment.

MDA-MB-231 cells = test: MTT cytotoxicity, breast cancer cells MDA-MB-231; details: read-out: IC50, MDA-MB-231 (breast), MTT
Text: as §1, §2, §3, §4
(§5) Among the compounds of the present invention, those that killed cancer cells by at least 50% (p<0.05) are selected and tested whether a 10-fold concentration of the M concentration at the IC50 value is toxic to normal healthy cells.

A549 cells = test: MTT cytotoxicity, lung cancer cells A549; details: no * mark (incubation time not specified)
Text: as §1, §2, §3, §4, §5

A498 cells = test: MTT cytotoxicity, kidney cancer cells A498; details: MTT
Text: as §1, §2, §3, §4, §5

MIAPaCa-2 cells = test: MTT cytotoxicity, pancreas cancer cells MIAPaCa-2; details: MTT
Text: as §1, §2, §3, §4

CAKI-1 cells = test: MTT cytotoxicity, kidney cancer cells CAKI-1
Text: as §1, §2, §3, §4, §5

MCF-7 cells = test: MTT cytotoxicity, breast cancer cells MCF-7; details: MTT
Text: as §1, §2, §3, §4, §5

HT-29 cells = test: MTT cytotoxicity, colon cancer cells HT-29; details: MTT, no * mark (incubation time not specified)
Text: as §1, §2, §3, §4

HUVEC cells = test: MTT cytotoxicity, healthy cells HUVEC; details: for IC50: MTT
Text: as §1, §2, §3, §4, §5

MCF-10F/Beas2b cells = test: MTT cytotoxicity, healthy cells MCF-10F/Beas2b; details: for IC50: MTT
Text: as §1, §2, §3, §4, §5

[1] = no * mark (incubation time not given)
[2] = no * mark (incubation time not specified)
[3] = *: effective 72 hours after incubation

Row | SMILES | IC50 (HCT-116 cells) [µM] | IC50 (MDA-MB-231 cells; [1]) [µM] | IC50 (A549 cells) [µM] | IC50 (A498 cells; [2]) [µM] | IC50 (MIAPaCa-2 cells; [3]) [µM] | IC50 (CAKI-1 cells; [2]) [µM] | IC50 (MCF-7 cells; [2]) [µM] | IC50 (HT-29 cells) [µM] | IC50 (HUVEC cells; [2]) [µM] | IC50 (MCF-10F/Beas2b cells; [2]) [µM] | IC50 (MIAPaCa-2 cells; [2]) [µM] | IC50 (CAKI-1 cells; [3]) [µM] | further results
1 | Cc1cccc(CN2C(=O)/C(=C\c3c[nH]c4ccccc34)c3cc(OC(F)(F)F)ccc32)c1 [6C] | > 10 | 9.87 | > 10 | > 10 | > 10 | 9.66 | 4.72 | > 10 | > 10 | – | – | – | –
2 | Cc1cccc(CN2C(=O)C(=Cc3c[nH]c4ccccc34)c3cccc(F)c32)c1 [34C] | 0.64 | > 10 | 4.7 | 3.64 | – | 7.61 | > 10 | > 10 | 1.69 | 4.1 | > 10 | – | –
3 | Cc1ccc2c(c1)/C(=C/c1c[nH]c3ccccc13)C(=O)N2Cc1ccc(F)cc1 [45C] | 0.47 | > 10 | 2.22 | – | – | – | > 10 | > 10 | 2.62 | – | > 10 | 4.91 | Selectivite Index, MCF-10F/Beas2b (Table 2) (MCF-10F/Beas2b cells; MCF-10F/Beas2b vs colon or pancreas cancer cells, cancer line not given): 6.14; IC50 (MCF-10F/Beas2b cells; [3]): 2.89 µM; IC50 (A498 cells; [3]): 0.78 µM; Selectivite Index, HUVEC (Table 2) (HUVEC cells; HUVEC vs colon or pancreas cancer cells, cancer line not given): 5.57
4 | O=C1/C(=C\c2c[nH]c3ccccc23)c2cc(OC(F)(F)F)ccc2N1Cc1cccc(F)c1 [2C] | 2.88 | 2.91 | 3.58 | 4.78 | 7.35 | – | 8.82 | > 10 | 2.56 | 3.07 | – | 5.46 | –
5 | Cc1ccc2c(c1)/C(=C/c1c[nH]c3ccccc13)C(=O)N2Cc1ccc(Cl)cc1 [47C] | > 10 | > 10 | 2.65 | – | – | 4.66 | 5 | > 10 | > 10 | – | > 10 | – | Selectivite Index (SI), MCF-10F/Beas2b (Table 1) (MCF-10F/Beas2b cells; MCF-10F/Beas2b vs breast or kidney cancer cells, cancer line not given): 2.88; IC50 (MCF-10F/Beas2b cells; [3]): 2.6 µM; IC50 (A498 cells; [3]): 0.9 µM; Selectivite Index (SI), HUVEC (Table 1) (HUVEC cells; HUVEC vs breast or kidney cancer cells, cancer line not given): > 11.11
6 | O=C1/C(=C\c2c[nH]c3ccccc23)c2cccc(Cl)c2N1Cc1cccc(F)c1 [23C] | > 10 | > 10 | > 10 | 8.33 | > 10 | 4.88 | 3.07 | > 10 | > 10 | – | – | – | –
7 | Cc1ccc(CN2C(=O)/C(=C\c3c[nH]c4ccccc34)c3cc(F)ccc32)cc1 [Y25] | 1.46 | 3.4 | 3.31 | 3.15 | – | – | – | > 10 | 0.13 | 2.72 | 1.14 | 7 | IC50 (MCF-7 cells; [3]): 4.83 µM
8 | O=C1/C(=C\c2c[nH]c3ccccc23)c2cc(F)ccc2N1Cc1ccc(F)cc1 [10C] | 3.96 | – | 3.49 | 3.81 | – | – | > 10 | 2.29 | 4.65 | 2.99 | 2.77 | 6.69 | IC50 (MDA-MB-231 cells; [3]): 8.13 µM
9 | O=C1C(=Cc2c[nH]c3ccccc23)c2cc(Cl)ccc2N1Cc1cccc(Cl)c1 [18C] | 3.94 | 7.99 | 6.57 | 1.75 | 1.54 | 3.46 | 5.53 | 3.12 | 1.07 | 1.07 | – | – | –
10 | O=C1/C(=C\c2c[nH]c3ccccc23)c2cc(F)ccc2N1Cc1ccc(Cl)cc1 [12C] | 0.64 | – | 1.68 | – | – | 2.81 | – | 1.08 | 0.55 | 2.46 | 0.49 | – | IC50 (MCF-10F/Beas2b cells; [3]): 2.46 µM; IC50 (MDA-MB-231 cells; [3]): 6.8 µM; IC50 (A498 cells; [3]): 0.63 µM; IC50 (MCF-7 cells; [3]): 2.63 µM
11 | Cn1cc(/C=C2\C(=O)N(Cc3ccccc3)c3ccccc32)c2ccccc21 [Y12] | 1.46 | > 10 | > 10 | > 10 | – | > 10 | > 10 | > 10 | > 10 | – | > 10 | – | –
12 | O=C1/C(=C\c2c[nH]c3ccccc23)c2cccc(F)c2N1Cc1cccc(F)c1 [30C] | 2.06 | 4.21 | 6.8 | 6.57 | – | – | 4.31 | > 10 | – | 1.9 | 1.9 | 7.7 | IC50 (HUVEC cells; [3]): 0.94 µM
13 | O=C1/C(=C\c2c[nH]c3ccccc23)c2cccc(Cl)c2N1Cc1ccc(F)cc1 [24C] | 2.35 | 7.41 | 8.08 | 2.6 | – | – | 5.08 | 0.73 | 1.26 | 1.26 | 1.12 | 5.72 | –
14 | O=C1/C(=C\c2c[nH]c3ccccc23)c2cc(Cl)ccc2N1Cc1ccc(Cl)cc1 [19C] | > 10 | > 10 | 5.55 | 0.51 | – | > 10 | 3.16 | > 10 | 1.87 | 1.87 | > 10 | – | –
15 | Cc1ccc(CN2C(=O)/C(=C\c3c[nH]c4ccccc34)c3cccc(F)c32)cc1 [35C] | 0.23 | > 10 | 5.93 | – | – | 4.5 | > 10 | 1.01 | 1.62 | 3.23 | 0.62 | – | IC50 (A498 cells; [3]): 3.09 µM
16 | O=C1/C(=C\c2c[nH]c3ccccc23)c2cc(OC(F)(F)F)ccc2N1Cc1cccc(Cl)c1 [4C] | 1.13 | – | 2.42 | 3.05 | 3.67 | – | – | > 10 | 0.97 | 1.73 | – | 2.79 | IC50 (MDA-MB-231 cells; [3]): 3.07 µM; IC50 (MCF-7 cells; [3]): 3.06 µM
17 | O=C1/C(=C\c2c[nH]c3ccccc23)c2cccc(Cl)c2N1Cc1ccc(Cl)cc1 [26C] | > 10 | > 10 | > 10 | 6.92 | > 10 | 4.5 | 3.55 | > 10 | > 10 | – | – | – | –
18 | O=C1/C(=C\c2c[nH]c3ccccc23)c2cccc(F)c2N1Cc1ccccc1 [29C] | > 10 | > 10 | > 10 | > 10 | – | 4.12 | 4.35 | > 10 | – | – | > 10 | – | IC50 (HUVEC cells; [3]): 0.95 µM
19 | O=C1/C(=C\c2c[nH]c3ccccc23)c2cc(F)ccc2N1Cc1cccc(Cl)c1 [11C] | > 10 | 7.25 | > 10 | > 10 | > 10 | 9.81 | > 10 | > 10 | > 10 | – | – | – | –
20 | Cc1ccc2c(c1)/C(=C/c1cn(C)c3ccccc13)C(=O)N2Cc1ccccc1 [Y13] | 4.58 | > 10 | > 10 | > 10 | – | > 10 | > 10 | 3.37 | 3.37 | – | 2.2 | – | –
